Experimental data from ChEMBL document CHEMBL1201862, “PubChem BioAssay data set” (2004).
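Method: 48-hour compound exposure of cells in 96-well plates, five concentrations, linear interpolation of endpoints. At the GI50, growth is halved.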 Activity calls are given as the source filed them. No stated cut-off is given here; in the data, active = GI50 up to about 1.1 µM and inactive = higher.

Experiments:
Experiment in all cases: inhibition of tumour cell growth, NCI panel, 48 h
NCI/ADR-RES = system: NCI/ADR-RES
786-0 = system: 786-0
SK-OV-3 = system: SK-OV-3
SK-MEL-2 = system: SK-MEL-2
NCI-H226 = system: NCI-H226
Hs-578T = system: Hs-578T
A549 = system: A549
T47D = system: T47D
BT-549 = system: BT-549
HL-60 = system: HL-60
OVCAR-4 = system: OVCAR-4
UACC-62 = system: UACC-62
SK-MEL-5 = system: SK-MEL-5
UACC-257 = system: UACC-257
M14 = system: M14
HT-29 = system: HT-29
IGROV-1 = system: IGROV-1
NCI-H23 = system: NCI-H23
NCI-H460 = system: NCI-H460
CAKI-1 = system: CAKI-1
ACHN = system: ACHN
KM12 = system: KM12
MDA-MB-231 = system: MDA-MB-231
OVCAR-3 = system: OVCAR-3
HCT-116 = system: HCT-116
LOX IMVI = system: LOX IMVI
A498 = system: A498
RPMI-8226 = system: RPMI-8226
K562 = system: K562
UO-31 = system: UO-31
SF-268 = system: SF-268
TK-10 = system: TK-10
MDA-N = system: MDA-N
PC-3 = system: PC-3
HCC 2998 = system: HCC 2998
MCF7 = system: MCF7
SW-620 = system: SW-620
SN12C = system: SN12C
RXF 393 = system: RXF 393
HCT-15 = system: HCT-15
MDA-MB-435 = system: MDA-MB-435
CCRF-CEM = system: CCRF-CEM
SF-539 = system: SF-539
EKVX = system: EKVX
U-251 = system: U-251
HOP-62 = system: HOP-62
MOLT-4 = system: MOLT-4
DU-145 = system: DU-145
SF-295 = system: SF-295
SNB-19 = system: SNB-19
Malme-3M = system: Malme-3M
OVCAR-8 = system: OVCAR-8
SR = system: SR
SK-MEL-28 = system: SK-MEL-28
OVCAR-5 = system: OVCAR-5
COLO 205 = system: COLO 205
SNB-75 = system: SNB-75
NCI-H522 = system: NCI-H522

In the case of `COC(=O)c1ccccc1C#CCCCOS(C)(=O)=O`, the GI50 (NCI/ADR-RES) is reported as > 10 µM (inactive), the GI50 (786-0) is reported as > 10 µM (inactive) and the GI50 (SK-OV-3) is reported as > 10 µM (inactive). For the same compound, the GI50 (SK-MEL-2) was > 10 µM (inactive), the GI50 (NCI-H226) was > 10 µM (inactive) and the GI50 (Hs-578T) was > 10 µM (inactive). The GI50 (A549) was > 10 µM (inactive), the GI50 (T47D) was > 10 µM (inactive) and the GI50 (BT-549) was > 10 µM (inactive). The GI50 (HL-60) was > 10 µM (inactive), the GI50 (OVCAR-4) was > 10 µM (inactive) and the GI50 (UACC-62) was > 10 µM (inactive). For the same compound, the GI50 (SK-MEL-5) was > 10 µM (inactive), the GI50 (UACC-257) was > 10 µM (inactive) and the GI50 (M14) was > 10 µM (inactive). For the same compound, the GI50 (HT-29) was > 10 µM (inactive), the GI50 (IGROV-1) was > 10 µM (inactive) and the GI50 (NCI-H23) was > 10 µM (inactive). For the same compound, the GI50 (NCI-H460) was > 10 µM (inactive), the GI50 (CAKI-1) was > 10 µM (inactive) and the GI50 (ACHN) was > 10 µM (inactive). The GI50 (KM12) was > 10 µM (inactive), the GI50 (MDA-MB-231) was > 10 µM (inactive) and the GI50 (OVCAR-3) was > 10 µM (inactive). The GI50 (HCT-116) was > 10 µM (inactive), the GI50 (LOX IMVI) was > 10 µM (inactive) and the GI50 (A498) was > 10 µM (inactive). For the same compound, the GI50 (RPMI-8226) was > 10 µM (inactive), the GI50 (K562) was > 10 µM (inactive) and the GI50 (UO-31) was > 10 µM (inactive). The GI50 (SF-268) was > 10 µM (inactive), the GI50 (TK-10) was > 10 µM (inactive) and the GI50 (MDA-N) was > 10 µM (inactive). For the same compound, the GI50 (PC-3) was > 10 µM (inactive), the GI50 (HCC 2998) was > 10 µM (inactive) and the GI50 (MCF7) was > 10 µM (inactive). The GI50 (SW-620) was > 10 µM (inactive), the GI50 (SN12C) was > 10 µM (inactive) and the GI50 (RXF 393) was > 10 µM (inactive). For the same compound, the GI50 (HCT-15) was > 10 µM, the GI50 (MDA-MB-435) was > 10 µM (inactive) and the GI50 (CCRF-CEM) was > 10 µM (inactive). For the same compound, the GI50 (SF-539) was > 10 µM (inactive), the GI50 (EKVX) was > 10 µM (inactive) and the GI50 (U-251) was > 10 µM (inactive). The GI50 (HOP-62) was > 10 µM (inactive), the GI50 (MOLT-4) was > 10 µM (inactive) and the GI50 (DU-145) was > 10 µM (inactive). For the same compound, the GI50 (SF-295) was > 10 µM (inactive), the GI50 (SNB-19) was > 10 µM (inactive) and the GI50 (Malme-3M) was > 10 µM (inactive). For the same compound, the GI50 (OVCAR-8) was > 10 µM (inactive), the GI50 (SR) was > 10 µM (inactive) and the GI50 (SK-MEL-28) was > 10 µM (inactive). For the same compound, the GI50 (OVCAR-5) was > 10 µM (inactive) and the GI50 (COLO 205) was > 10 µM (inactive).

In the case of `O=C(NNC(=O)c1ccccc1Cl)c1ccccc1O`, the GI50 (NCI/ADR-RES) is reported as 20.3 µM (inactive), the GI50 (786-0) is reported as 87.1 µM (inactive) and the GI50 (SK-OV-3) is reported as 18.2 µM (inactive). The GI50 (SK-MEL-2) was 53.7 µM (inactive), the GI50 (NCI-H226) was 3.42 µM (inactive) and the GI50 (Hs-578T) was 41.9 µM (inactive). The GI50 (A549) was 56.2 µM (inactive), the GI50 (T47D) was > 100 µM (inactive) and the GI50 (BT-549) was > 100 µM (inactive). For the same compound, the GI50 (OVCAR-4) was > 100 µM (inactive), the GI50 (UACC-62) was 35.7 µM (inactive) and the GI50 (SK-MEL-5) was > 100 µM (inactive). The GI50 (SNB-75) was 20.5 µM (inactive), the GI50 (UACC-257) was > 100 µM (inactive) and the GI50 (M14) was 39.7 µM (inactive). For the same compound, the GI50 (HT-29) was 23.8 µM (inactive), the GI50 (IGROV-1) was 3.84 µM (inactive) and the GI50 (NCI-H460) was 23.6 µM (inactive). For the same compound, the GI50 (CAKI-1) was 41.3 µM (inactive), the GI50 (KM12) was 20.1 µM (inactive) and the GI50 (MDA-MB-231) was > 100 µM (inactive). For the same compound, the GI50 (OVCAR-3) was 25.2 µM (inactive), the GI50 (HCT-116) was 35.8 µM (inactive) and the GI50 (LOX IMVI) was 38.1 µM (inactive). For the same compound, the GI50 (A498) was > 100 µM (inactive), the GI50 (RPMI-8226) was > 100 µM (inactive) and the GI50 (K562) was 91 µM (inactive). The GI50 (UO-31) was 27.7 µM (inactive), the GI50 (SF-268) was 10.6 µM (inactive) and the GI50 (TK-10) was > 100 µM (inactive). The GI50 (MDA-N) was > 100 µM (inactive), the GI50 (PC-3) was 40.4 µM (inactive) and the GI50 (MCF7) was 41.4 µM (inactive). The GI50 (SW-620) was 71.6 µM (inactive), the GI50 (NCI-H522) was 12.2 µM (inactive) and the GI50 (SN12C) was > 100 µM (inactive). For the same compound, the GI50 (RXF 393) was > 100 µM (inactive), the GI50 (HCT-15) was 21.7 µM and the GI50 (MDA-MB-435) was 67 µM (inactive). The GI50 (CCRF-CEM) was 44.1 µM (inactive), the GI50 (SF-539) was > 100 µM (inactive) and the GI50 (EKVX) was 16.3 µM (inactive). For the same compound, the GI50 (U-251) was > 100 µM (inactive), the GI50 (HOP-62) was 31.8 µM (inactive) and the GI50 (MOLT-4) was 57.1 µM (inactive). The GI50 (DU-145) was > 100 µM (inactive), the GI50 (SF-295) was 32.7 µM (inactive) and the GI50 (SNB-19) was > 100 µM (inactive). For the same compound, the GI50 (Malme-3M) was 4.24 µM (inactive), the GI50 (OVCAR-8) was 19.8 µM (inactive) and the GI50 (SR) was 29.9 µM (inactive). For the same compound, the GI50 (SK-MEL-28) was > 100 µM (inactive), the GI50 (OVCAR-5) was > 100 µM (inactive) and the GI50 (COLO 205) was 35.2 µM (inactive).

In the case of `O=C1c2ccccc2CC12Cc1ccc3c(c1C2=O)CCCC3` (stereo unspecified), the GI50 (NCI/ADR-RES) is reported as 7.06 µM (inactive), the GI50 (786-0) is reported as 7.85 µM (inactive) and the GI50 (SK-OV-3) is reported as > 100 µM (inactive). For the same compound, the GI50 (SK-MEL-2) was > 100 µM (inactive), the GI50 (NCI-H226) was 24 µM (inactive) and the GI50 (Hs-578T) was 0.491 µM (active). For the same compound, the GI50 (A549) was 8.05 µM (inactive), the GI50 (T47D) was 1.39 µM (inactive) and the GI50 (BT-549) was > 100 µM (inactive). For the same compound, the GI50 (HL-60) was 16.8 µM (inactive), the GI50 (OVCAR-4) was 3.29 µM (inactive) and the GI50 (UACC-62) was 8.2 µM (inactive). For the same compound, the GI50 (SK-MEL-5) was 6.19 µM (inactive), the GI50 (SNB-75) was 6.52 µM (inactive) and the GI50 (UACC-257) was > 100 µM (inactive). For the same compound, the GI50 (M14) was 8.61 µM (inactive), the GI50 (HT-29) was 6.49 µM (inactive) and the GI50 (IGROV-1) was 4.71 µM (inactive). For the same compound, the GI50 (NCI-H460) was 3.91 µM (inactive), the GI50 (ACHN) was 7.83 µM (inactive) and the GI50 (KM12) was 41.4 µM (inactive). For the same compound, the GI50 (MDA-MB-231) was 0.948 µM (active), the GI50 (OVCAR-3) was 12.6 µM (inactive) and the GI50 (HCT-116) was 3.57 µM (inactive). The GI50 (LOX IMVI) was 19.9 µM (inactive), the GI50 (A498) was 23.7 µM (inactive) and the GI50 (RPMI-8226) was 18.2 µM (inactive). For the same compound, the GI50 (K562) was 21.6 µM (inactive), the GI50 (UO-31) was 9.27 µM (inactive) and the GI50 (SF-268) was > 100 µM (inactive). The GI50 (TK-10) was > 100 µM (inactive), the GI50 (MDA-N) was 6.35 µM (inactive) and the GI50 (PC-3) was 66.7 µM (inactive). The GI50 (HCC 2998) was > 100 µM (inactive), the GI50 (MCF7) was > 100 µM (inactive) and the GI50 (SW-620) was 6.32 µM (inactive). The GI50 (NCI-H522) was 5.21 µM (inactive), the GI50 (SN12C) was 14.1 µM (inactive) and the GI50 (RXF 393) was 4.13 µM (inactive). For the same compound, the GI50 (HCT-15) was 5.13 µM, the GI50 (MDA-MB-435) was 21.7 µM (inactive) and the GI50 (CCRF-CEM) was 49 µM (inactive). For the same compound, the GI50 (SF-539) was 4.89 µM (inactive), the GI50 (EKVX) was > 100 µM (inactive) and the GI50 (U-251) was 35.2 µM (inactive). The GI50 (HOP-62) was 7.74 µM (inactive), the GI50 (MOLT-4) was 4.35 µM (inactive) and the GI50 (DU-145) was > 100 µM (inactive). The GI50 (SF-295) was 5.96 µM (inactive), the GI50 (SNB-19) was 20.7 µM (inactive) and the GI50 (Malme-3M) was 82.2 µM (inactive). For the same compound, the GI50 (OVCAR-8) was 26 µM (inactive), the GI50 (SR) was 2.87 µM (inactive) and the GI50 (SK-MEL-28) was 47.2 µM (inactive). The GI50 (OVCAR-5) was > 100 µM (inactive) and the GI50 (COLO 205) was 13 µM (inactive).
